Measurements as given in US20090214498A1, “ANTIMICROBIAL PEPTIDES AND BACTERIAL STRAINS THAT PRODUCE THEM” (TEAGASC- NATIONAL DIARY PRODUCTS RESEARCH CENTRE, priority 2005, published 2009).
Values after ≈ are worked out from the molar mass of the structure shown. Values joined by “and” are separate entries in the source; they are usually repeats but may differ in a detail not shown here. Equal entries are not always repeated. Residues, ends and D or L forms follow the SMILES beside them.

Experiments:
[1] = tested on: E. coli DPC6053; assay: 96-well plate assay (OD600), MIC; type: cell-based, Escherichia coli; conditions: for minimum inhibitory concentration (MIC): E. coli DPC6053, 6 h at 37° C., OD600
Description: (§1) Preliminary characterisation of the antibacterial activity of peptides and fractions synthesised involved measurement of growth inhibition in a 96-well plate assay (1, 10) and utilisation of an agar diffusion method (16,39). […] A control without bacteria (sterility control) was also included. The plates were incubated for 6 h at 37° C. and culture growth monitored hourly. Minimum inhibitory concentrations (MIC's) were taken as the lowest concentration without visible growth, measured by recording the OD600, in a micro-titre plate reader. A well diffusion assay (16, 40) was used to detect antibacterial activity of purified and chemically synthesised peptides. These assays were performed in either Brain Heart Infusion (BHI), Luria Bertani (LB) or Nutrient agar (NA) seeded with 1 ml of an overnight culture of the indicator strains E. coli DPC6053, L. innocua DPC3306, E. sakazakii 5920 (ATCC12868) or E. sakazakii 8272 (NCTC8155) respectively. Wells, 4.6 mm in diameter, were cut into these agar plates, and 30 μl (0.162 mg/ml) of the peptide fraction placed in each well. Plates were stored at 4° C. for 4 h to permit radial diffusion of the peptide, incubated at 30° C. anaerobically or 37° C. aerobically for 24 h, and examined for zones of inhibition. The sensitivity of a strain to the peptides was scored according to the diameter of the zone of inhibition surrounding the well. The experiments were performed in triplicate and mean zone size calculated.

[2] = tested on: E. coli DPC6053; assay: agar well diffusion assay, E. coli DPC6053; type: cell-based, Escherichia coli JM109; parameters: key to zone of inhibition (inhibitory spectrum): +++: Zone of inhibition >2.0 cm in diameter produced.; ++: Zone of inhibition >1.5 cm in diameter produced.; +: Zone of inhibition >1.0 cm in diameter produced.; −: No zone detected; conditions: for zone of inhibition (inhibitory spectrum): Escherichia coli JM109 DPC6053, pure synthesised peptide; for concentration at which the indicator organism was inhibited: agar well-diffusion assay
Description: as §1

[3] = tested on: E. coli O157:H7 DPC6054; assay: agar well diffusion assay, E. coli O157:H7 DPC6054; type: cell-based, Escherichia coli; parameters: key to zone of inhibition (inhibitory spectrum): +++: Zone of inhibition >2.0 cm in diameter produced.; ++: Zone of inhibition >1.5 cm in diameter produced.; +: Zone of inhibition >1.0 cm in diameter produced.; −: No zone detected; conditions: for zone of inhibition (inhibitory spectrum): E. coli O157:H7 DPC6054, pure synthesised peptide
[4] = tested on: E. coli O157:H7 DPC6055; assay: agar well diffusion assay, E. coli O157:H7 DPC6055; type: cell-based, Escherichia coli; parameters: key to zone of inhibition (inhibitory spectrum): +++: Zone of inhibition >2.0 cm in diameter produced.; ++: Zone of inhibition >1.5 cm in diameter produced.; +: Zone of inhibition >1.0 cm in diameter produced.; −: No zone detected; conditions: for zone of inhibition (inhibitory spectrum): E. coli O157:H7 DPC6055, pure synthesised peptide
[5] = tested on: E. sakazakii 5920 (ATCC12868); assay: agar well diffusion assay, E. sakazakii 5920; type: cell-based, Enterobacter sakazakii; parameters: key to zone of inhibition (inhibitory spectrum): +++: Zone of inhibition >2.0 cm in diameter produced.; ++: Zone of inhibition >1.5 cm in diameter produced.; +: Zone of inhibition >1.0 cm in diameter produced.; −: No zone detected; conditions: for zone of inhibition (inhibitory spectrum): Enterobacter sakazakii ATCC12868 DPC6090, pure synthesised peptide
Description: as §1

[6] = tested on: E. sakazakii 8272 (NCTC8155); assay: agar well diffusion assay, E. sakazakii 8272; type: cell-based, Enterobacter sakazakii; parameters: key to zone of inhibition (inhibitory spectrum): +++: Zone of inhibition >2.0 cm in diameter produced.; ++: Zone of inhibition >1.5 cm in diameter produced.; +: Zone of inhibition >1.0 cm in diameter produced.; −: No zone detected; conditions: for zone of inhibition (inhibitory spectrum): E. sakazakii NCTC8155 DPC6091, pure synthesised peptide
Description: as §1

[7] = tested on: L. innocua DPC3306; assay: agar well diffusion assay, L. innocua DPC3306; type: cell-based; conditions: Listeria innocua DPC3306; for zone of inhibition (inhibitory spectrum): pure synthesised peptide
Description: as §1

[8] = tested on: Staphylococcus aureus DPC5246; assay: agar well diffusion assay, S. aureus DPC5246; type: cell-based; parameters: key: +++: Zone of inhibition >2.0 cm in diameter produced.; ++: Zone of inhibition >1.5 cm in diameter produced.; +: Zone of inhibition >1.0 cm in diameter produced.; −: No zone detected; conditions: pure synthesised peptide
[9] = tested on: Lactobacillus bulgaricus ATCC11842 DPC5383; assay: agar well diffusion assay, L. bulgaricus DPC5383; type: cell-based; parameters: key: +++: Zone of inhibition >2.0 cm in diameter produced.; ++: Zone of inhibition >1.5 cm in diameter produced.; +: Zone of inhibition >1.0 cm in diameter produced.; −: No zone detected; conditions: pure synthesised peptide
[10] = tested on: Streptococcus mutans DPC4069; assay: agar well diffusion assay, S. mutans DPC4069; type: cell-based; parameters: key: +++: Zone of inhibition >2.0 cm in diameter produced.; ++: Zone of inhibition >1.5 cm in diameter produced.; +: Zone of inhibition >1.0 cm in diameter produced.; −: No zone detected; conditions: pure synthesised peptide
[11] = tested on: E. coli DPC6053; assay: susceptibility to proteinase K, agar well diffusion assay; type: cell-based, Escherichia coli; conditions: proteinase K 2050 U/ml, 1:1 volume ratio, 4° C., 6 h
Description: Plates were incubated at 37° C. for 24 h. The positive controls used were the peptides isracidin (Peptide Protein Research Ltd.) and Cecropin P1 (Sigma TM).

[12] = tested on: lactobacilli and other Gram-positive bacteria; conditions: Floris et al. 2003; cited from earlier work
[13] = tested on: S. aureus, Streptococcus pyogenes and L. monocytogenes; conditions: doses as low as; cited from earlier work

Row | Compound | zone of inhibition (inhibitory spectrum) [2] | concentration at which the indicator organism was inhibited ([2]; E. coli DPC6053) [mM] | zone of inhibition (inhibitory spectrum) [3] | zone of inhibition (inhibitory spectrum) [4] | zone of inhibition (inhibitory spectrum) [5] | zone of inhibition (inhibitory spectrum) [6] | zone of inhibition (inhibitory spectrum) [7] | zone of inhibition (inhibitory spectrum) [8] | zone of inhibition (inhibitory spectrum) [9] | zone of inhibition (inhibitory spectrum) [10] | minimum inhibitory concentration (MIC) [1] | antimicrobial activity after treatment with proteinase K [11] | other results
1 | CC[C@H](C)[C@H](NC(=O)CNC(=O)[C@H](CCC(=O)O)NC(=O)[C@H](CO)NC(=O)[C@@H](NC(=O)[C@H](CCCNC(=N)N)NC(=O)[C@H](CCCCN)NC(=O)[C@H](CCCCN)NC(=O)[C@H](C)NC(=O)[C@H](CO)NC(=O)[C@H](CC(N)=O)NC(=O)[C@H](CCC(=O)O)NC(=O)[C@H](CC(C)C)NC(=O)[C@H](CCCCN)NC(=O)[C@H](CCCCN)NC(=O)[C@H](C)NC(=O)[C@@H](NC(=O)[C@H](CCCCN)NC(=O)[C@H](CO)NC(=O)[C@H](CC(C)C)NC(=O)[C@H](Cc1c[nH]c2ccccc12)NC(=O)[C@@H](N)CO)[C@@H](C)O)[C@@H](C)CC)C(=O)N[C@@H](C)C(=O)N[C@H](C(=O)N[C@@H](C)C(=O)N[C@H](C(=O)N[C@@H](CCC(N)=O)C(=O)NCC(=O)NCC(=O)N1CCC[C@H]1C(=O)N[C@@H](CCCNC(=N)N)C(=O)O)[C@@H](C)CC)[C@@H](C)CC [Cecropin P1] (H-SWLSKTAKKLENSAKKRISEGIAIAIQGGPR-OH) |  |  |  |  |  |  |  |  |  |  |  |  | MIC of commercially available control peptides ([1]; strain not given): 50 µM
2 | CC[C@H](C)[C@H](N)C(=O)N[C@@H](CCCCN)C(=O)N[C@@H](Cc1c[nH]cn1)C(=O)N[C@@H](CCC(N)=O)C(=O)NCC(=O)N[C@@H](CC(C)C)C(=O)N1CCC[C@H]1C(=O)N[C@@H](CCC(N)=O)C(=O)N[C@@H](CCC(=O)O)C(=O)O [SEQ ID NO: 1] (H-IKHQGLPQE-OH; N-terminus and C-terminus assumed) | +++ (Zone of inhibition >2.0 cm in diameter produced.) | 0.05 | +++ (Zone of inhibition >2.0 cm in diameter produced.) | +++ (Zone of inhibition >2.0 cm in diameter produced.) | +++ (Zone of inhibition >2.0 cm in diameter produced.) | +++ (Zone of inhibition >2.0 cm in diameter produced.) | ++ (Zone of inhibition >1.5 cm in diameter produced.) | − | +++ (Zone of inhibition >2.0 cm in diameter produced.) | ++ (Zone of inhibition >1.5 cm in diameter produced.) | 78 µM (≈ 81.8 µg/mL) | lose their antibacterial activity | concentration at which inhibition was shown ([3]; agar well-diffusion assay, E. coli DPC6054 (O157:H7 derivative)): 0.05 mM; concentration at which inhibition was shown ([4]; agar well-diffusion assay, E. coli DPC6055 (O157:H7 derivative)): 0.05 mM; concentration at which inhibition was shown ([5]; agar well-diffusion assay, E. sakazakii 5920 (ATCC12868)): 0.05 mM
3 | CC(C)C[C@H](NC(=O)[C@H](CC(C)C)NC(=O)[C@H](CC(N)=O)NC(=O)[C@H](CCC(=O)O)NC(=O)[C@H](CC(N)=O)NC(=O)[C@H](CC(C)C)NC(=O)[C@@H](N)C(C)C)C(=O)N[C@@H](CCCNC(=N)N)C(=O)O [SEQ ID NO: 3] (H-VLNENLLR-OH; N-terminus and C-terminus assumed) | +++ (Zone of inhibition >2.0 cm in diameter produced.) | 0.22 | +++ (Zone of inhibition >2.0 cm in diameter produced.) | +++ (Zone of inhibition >2.0 cm in diameter produced.) | +++ (Zone of inhibition >2.0 cm in diameter produced.) | +++ (Zone of inhibition >2.0 cm in diameter produced.) | ++ (Zone of inhibition >1.5 cm in diameter produced.) | − | +++ (Zone of inhibition >2.0 cm in diameter produced.) | ++ (Zone of inhibition >1.5 cm in diameter produced.) | 220 µM (≈ 213 µg/mL) | lose their antibacterial activity | concentration at which inhibition was shown ([6]; agar well-diffusion assay, E. sakazakii DPC6091): 0.22 mM
4 | CC[C@H](C)[C@H](NC(=O)[C@@H]1CCCN1C(=O)[C@H](Cc1cnc[nH]1)NC(=O)[C@H](CCCCN)NC(=O)[C@@H]1CCCN1C(=O)[C@@H](N)CCCNC(=N)N)C(=O)N[C@@H](CCCCN)C(=O)N[C@@H](Cc1cnc[nH]1)C(=O)N[C@@H](CCC(N)=O)C(=O)NCC(=O)N[C@@H](CC(C)C)C(=O)N1CCC[C@H]1C(=O)N[C@@H](CCC(N)=O)C(=O)N[C@@H](CCC(=O)O)C(=O)N[C@H](C(=O)N[C@@H](CC(C)C)C(=O)N[C@@H](CC(N)=O)C(=O)N[C@@H](CCC(=O)O)C(=O)N[C@@H](CC(N)=O)C(=O)N[C@@H](CC(C)C)C(=O)N[C@@H](CC(C)C)C(=O)N[C@@H](CCCNC(=N)N)C(=O)N[C@@H](Cc1ccccc1)C(=O)O)C(C)C [isracidin, Isracidin] (H-RPKHPIKHQGLPQEVLNENLLRF-OH) |  |  |  |  |  |  |  |  |  |  | 50 µM and 59 µM |  | concentration inhibiting in vitro growth [12]: 0.1 to 1 mg/mL; dose with strong protective effect [13]: 10 μg per mouse
5 | SDIPNPIGSENSEK (Strain DPC6026; listed as Lactobacillus acidophilus) [SEQ ID NO: 2, peptide of bovine αs1-casein f(183-207), found in fraction A1-49, chemically synthesised] | − |  | − | − | − | − | + (Zone of inhibition >1.0 cm in diameter produced.) | − | − | − |  | lose their antibacterial activity | inhibitory / antimicrobial activity (in words) ([2]; E. coli DPC6053, crude fermentates: 96-well plate assay or well diffusion assay): no activity; inhibitory / antimicrobial activity (in words) ([7]; crude fermentates: 96-well plate assay or well diffusion assay): some inhibitory activity
